The values below are quoted from earlier work in US12527845B2, “Formulations” (Arecor Limited, priority 2016, dated 2026).

The conditions of this data set: 25° C.

Consider `N[C@@H](CCC(=O)O)C(=O)O` [glutamate], for which the “log K with respect to zinc ion binding” value was 4.62.

`N[C@@H](Cc1c[nH]cn1)C(=O)O` [histidine]: the “log K with respect to zinc ion binding” value is reported as 6.51.

With `N[C@@H](CCC(=O)N[C@@H](CS)C(=O)NCC(=O)O)C(=O)O` [glutathione], the “log K with respect to zinc ion binding” value is listed as 7.98.

On to `N[C@@H](CS)C(=O)O` [cysteine], for which the “log K with respect to zinc ion binding” value was 9.11.

On to `O=C(O)CN(CCN(CC(=O)O)CC(=O)O)CC(=O)O` [EDTA, ethylenediaminetetraacetate], for which the “log K with respect to zinc ion binding” value is recorded as 14.5.

Take `O=C(O)CC(O)(CC(=O)O)C(=O)O` [citrate]: the “log K with respect to zinc ion binding” value was 4.93.

Take `NCCN` [ethylenediamine]: the “log K with respect to zinc ion binding” value is reported as 5.69.

As to `NCCNCCNCCN` [TETA, triethylenetetramine], the “log K with respect to zinc ion binding” value is on record as 11.95.

As for `O=P(O)(O)OP(=O)(O)O` [pyrophosphate], the “log K with respect to zinc ion binding” value is on record as 8.71.

Regarding `O=C(O)CN(CCOCCOCCN(CC(=O)O)CC(=O)O)CC(=O)O` [EGTA, ethyleneglycoltetraacetate], the “log K with respect to zinc ion binding” value is listed as 12.6.

Turning to `N[C@@H](CSSC[C@H](N)C(=O)O)C(=O)O` [cystine], the “log K with respect to zinc ion binding” value is reported as 6.67.

On to `NCCNCCN` [DETA, diethylenetriamine], for which the “log K with respect to zinc ion binding” value is 8.88.
